Patent US20240016811A1, “CANCER THERAPY USING A COMBINATION OF CDK7 INHIBITOR WITH AN ANTI-MICROTUBULE AGENT” (Aurigene Oncology Limited, priority 2020, published 2024)
Where “and” joins values, the source holds several entries; their conditions need not be identical. Equal values may be shown once.

System: DU 145 cells
Assay: Proliferation of DU 145 cells after 3-day treatment, measured using CTG reagent; single agents and combination, synergy analysed with CompuSyn
Format: cell-based
Conditions: for inhibition of proliferation in DU145 cells: single agents, conclusion in words
Description: The effect of 3-day compound treatment on cell proliferation was measured using CTG reagent.

**Q.** For `CC(C)[C@H](C(=O)Nc1cc(C2CC2)[nH]n1)c1cccc(-c2ccc(NC(=O)/C=C/CN3CCOCC3)nc2)c1` (single isomer, unassigned) [Compound-44A], which “% inhibition in proliferation” value (Compound-44A 0.00209 nM, Day-3, replicate columns) is on record?
**A.** 0.7% and −2.6% and 2.1%

**Q.** And the “% inhibition in proliferation” value (Compound-44A 0.00627 nM, Day-3, replicate columns)?
**A.** −1.3% and 3.7% and −0.3%

**Q.** And the “% inhibition in proliferation” value (Compound-44A 0.01882 nM, Day-3, replicate columns)?
**A.** −4.7% and 2.1% and −5.1%

**Q.** What about the “% inhibition in proliferation” value (Compound-44A 0.0565 nM, Day-3, replicate columns) of the same compound?
**A.** −1.2% and 8.1% and 1.7%

**Q.** And the “% inhibition in proliferation” value (Compound-44A 0.1694 nM, Day-3, replicate columns)?
**A.** −3.1% and 4.7% and −5.4%

**Q.** And the “% inhibition in proliferation” value (Compound-44A 0.5081 nM, Day-3, replicate columns)?
**A.** 8.2% and 0.7% and 3.1%

**Q.** And the “% inhibition in proliferation” value (Compound-44A 1.5242 nM, Day-3, replicate columns)?
**A.** 1.6% and −1.5% and 5.6%

**Q.** And the “% inhibition in proliferation” value (Compound-44A 4.5725 nM, Day-3, replicate columns)?
**A.** 5.9% and 3.4%

**Q.** And the “% inhibition in proliferation” value (Compound-44A 13.7174 nM, Day-3, replicate columns)?
**A.** 13.0% and 12.9%

**Q.** And the “% inhibition in proliferation” value (Compound-44A 41.1523 nM, Day-3, replicate columns)?
**A.** 30.9% and 25.2%

**Q.** What about the “% inhibition in proliferation” value (Compound-44A 123.4568 nM, Day-3, replicate columns) of the same compound?
**A.** 56.2% and 55.9%

**Q.** What about the “% inhibition in proliferation” value (Compound-44A 370.3704 nM, Day-3, replicate columns) of the same compound?
**A.** 77.9% and 80.7%

**Q.** And the “% inhibition in proliferation” value (Compound-44A 1111.1111 nM, Day-3, replicate columns)?
**A.** 110.4% and 105.8%

**Q.** And the “% inhibition in proliferation” value (Compound-44A 3333.3333 nM, Day-3, replicate columns)?
**A.** 111.8% and 110.8%

**Q.** What about the “% inhibition in proliferation” value (Compound-44A 10000.00 nM, Day-3, replicate columns) of the same compound?
**A.** 106.1% and 106.3%

**Q.** And the inhibition at 0.0005 µM (Homo sapiens, DU-145, 72 h, Compound-44A 0.5 nM alone (docetaxel 0), checkerboard, 3 days)?
**A.** 3.98%

**Q.** What about the inhibition at 0.0045 µM (Homo sapiens, DU-145, 72 h, Compound-44A 4.5 nM alone (docetaxel 0), checkerboard, 3 days) of the same compound?
**A.** 4.81%

**Q.** And the inhibition at 0.0137 µM (Homo sapiens, DU-145, 72 h, Compound-44A 13.7 nM alone (docetaxel 0), checkerboard, 3 days)?
**A.** 14.6%

**Q.** What about the inhibition at 0.0411 µM (Homo sapiens, DU-145, 72 h, Compound-44A 41.1 nM alone (docetaxel 0), checkerboard, 3 days) of the same compound?
**A.** 29.1%

**Q.** And the inhibition at 0.1234 µM (Homo sapiens, DU-145, 72 h, Compound-44A 123.4 nM alone (docetaxel 0), checkerboard, 3 days)?
**A.** 55.7%

**Q.** And the inhibition at 0.3703 µM (Homo sapiens, DU-145, 72 h, Compound-44A 370.3 nM alone (docetaxel 0), checkerboard, 3 days)?
**A.** 77.6%

**Q.** What about the inhibition at 0.0045725 µM (Homo sapiens, DU-145, Compound-44A 4.5725 nM, Day-3, replicate columns) of the same compound?
**A.** 5.1%

**Q.** What about the inhibition at 0.0137174 µM (Homo sapiens, DU-145, Compound-44A 13.7174 nM, Day-3, replicate columns) of the same compound?
**A.** 18%

**Q.** What about the inhibition at 0.0411523 µM (Homo sapiens, DU-145, Compound-44A 41.1523 nM, Day-3, replicate columns) of the same compound?
**A.** 31.2%

**Q.** And the inhibition at 0.123457 µM (Homo sapiens, DU-145, Compound-44A 123.4568 nM, Day-3, replicate columns)?
**A.** 55%

**Q.** And the inhibition at 0.37037 µM (Homo sapiens, DU-145, Compound-44A 370.3704 nM, Day-3, replicate columns)?
**A.** 74.1%

**Q.** And the inhibition at 1.11111 µM (Homo sapiens, DU-145, Compound-44A 1111.1111 nM, Day-3, replicate columns)?
**A.** 109%

**Q.** What about the inhibition at 3.33333 µM (Homo sapiens, DU-145, Compound-44A 3333.3333 nM, Day-3, replicate columns) of the same compound?
**A.** 112%

**Q.** What about the inhibition at 10 µM (Homo sapiens, DU-145, Compound-44A 10000.00 nM, Day-3, replicate columns) of the same compound?
**A.** 107%

**Q.** What about the “inhibition of proliferation in DU145 cells” value of the same compound?
**A.** dose dependent inhibition of proliferation

**Q.** How did the “% inhibition in proliferation” value (Docetaxel 0.0002 nM, Day-3, replicate columns) turn out when `CC(=O)O[C@@]12CO[C@@H]1C[C@H](O)[C@@]1(C)C(=O)[C@H](O)C3=C(C)[C@@H](OC(=O)[C@H](O)[C@@H](NC(=O)OC(C)(C)C)c4ccccc4)C[C@@](O)([C@@H](OC(=O)c4ccccc4)[C@H]21)C3(C)C` [Docetaxel, docetaxel] was run?
**A.** 1.6% and −0.5% and 3.2%

**Q.** What about the “% inhibition in proliferation” value (Docetaxel 0.0007 nM, Day-3, replicate columns) of the same compound?
**A.** −3.9% and −5.1% and 2.9%

**Q.** What about the “% inhibition in proliferation” value (Docetaxel 0.0021 nM, Day-3, replicate columns) of the same compound?
**A.** −2.5% and 1.2% and 3.4%

**Q.** What about the “% inhibition in proliferation” value (Docetaxel 0.0188 nM, Day-3, replicate columns) of the same compound?
**A.** 0.8% and 0.9% and 10.0%

**Q.** What about the “% inhibition in proliferation” value (Docetaxel 0.0565 nM, Day-3, replicate columns) of the same compound?
**A.** 8.8% and 16.0% and 24.0%

**Q.** And the “% inhibition in proliferation” value (Docetaxel 0.1694 nM, Day-3, replicate columns)?
**A.** 8.3% and 2.2% and 4.1%

**Q.** And the “% inhibition in proliferation” value (Docetaxel 0.5081 nM, Day-3, replicate columns)?
**A.** 15.5% and 18.3%

**Q.** What about the “% inhibition in proliferation” value (Docetaxel 1.5242 nM, Day-3, replicate columns) of the same compound?
**A.** 57.5% and 59.4%

**Q.** And the “% inhibition in proliferation” value (Docetaxel 4.5725 nM, Day-3, replicate columns)?
**A.** 98.6% and 99.2%

**Q.** What about the “% inhibition in proliferation” value (Docetaxel 13.7174 nM, Day-3, replicate columns) of the same compound?
**A.** 117.2% and 114.3%

**Q.** What about the “% inhibition in proliferation” value (Docetaxel 41.1523 nM, Day-3, replicate columns) of the same compound?
**A.** 123.1% and 120.5%

**Q.** What about the “% inhibition in proliferation” value (Docetaxel 123.4568 nM, Day-3, replicate columns) of the same compound?
**A.** 126.0% and 122.3%

**Q.** And the “% inhibition in proliferation” value (Docetaxel 370.3704 nM, Day-3, replicate columns)?
**A.** 125.0% and 123.2%

**Q.** And the “% inhibition in proliferation” value (Docetaxel 1111.1111 nM, Day-3, replicate columns)?
**A.** 125.2% and 121.8%

**Q.** And the “% inhibition in proliferation” value (Docetaxel 3333.3333 nM, Day-3, replicate columns)?
**A.** 124.1% and 121.7%

**Q.** And the “% inhibition in proliferation” value (Docetaxel 10000.00 nM, Day-3, replicate columns)?
**A.** 118.3% and 117.0%

**Q.** And the inhibition at 200 fM (Homo sapiens, DU-145, 72 h, Docetaxel 0.0002 nM alone (Compound-44A 0), checkerboard, 3 days)?
**A.** 1.42%

**Q.** What about the inhibition at 700 fM (Homo sapiens, DU-145, 72 h, Docetaxel 0.0007 nM alone (Compound-44A 0), checkerboard, 3 days) of the same compound?
**A.** 0%

**Q.** What about the inhibition at 2.1 pM (Homo sapiens, DU-145, 72 h, Docetaxel 0.0021 nM alone (Compound-44A 0), checkerboard, 3 days) of the same compound?
**A.** 0.69%

**Q.** And the inhibition at 18.8 pM (Homo sapiens, DU-145, 72 h, Docetaxel 0.0188 nM alone (Compound-44A 0), checkerboard, 3 days)?
**A.** 3.89%

**Q.** What about the inhibition at 56.5 pM (Homo sapiens, DU-145, 72 h, Docetaxel 0.0565 nM alone (Compound-44A 0), checkerboard, 3 days) of the same compound?
**A.** 16.3%

**Q.** And the inhibition at 0.0001694 µM (Homo sapiens, DU-145, 72 h, Docetaxel 0.1694 nM (Table 5: 0.17) alone (Compound-44A 0), checkerboard, 3 days)?
**A.** 4.86%

**Q.** And the inhibition at 0.0005081 µM (Homo sapiens, DU-145, 72 h, Docetaxel 0.5081 nM (Table 5: 0.51) alone (Compound-44A 0), checkerboard, 3 days)?
**A.** 15.9%

**Q.** What about the inhibition at 0.00152 µM (Homo sapiens, DU-145, 72 h, Docetaxel 1.52 nM alone (Compound-44A 0), checkerboard, 3 days) of the same compound?
**A.** 55.6%

**Q.** What about the inhibition at 0.00457 µM (Homo sapiens, DU-145, 72 h, Docetaxel 4.57 nM alone (Compound-44A 0), checkerboard, 3 days) of the same compound?
**A.** 97.5%

**Q.** And the inhibition at 0.01372 µM (Homo sapiens, DU-145, 72 h, Docetaxel 13.72 nM alone (Compound-44A 0), checkerboard, 3 days)?
**A.** 116%

**Q.** What about the inhibition at 0.04115 µM (Homo sapiens, DU-145, 72 h, Docetaxel 41.15 nM alone (Compound-44A 0), checkerboard, 3 days) of the same compound?
**A.** 122%

**Q.** What about the inhibition at 0.12346 µM (Homo sapiens, DU-145, 72 h, Docetaxel 123.46 nM alone (Compound-44A 0), checkerboard, 3 days) of the same compound?
**A.** 125%

**Q.** What about the inhibition at 0.37037 µM (Homo sapiens, DU-145, 72 h, Docetaxel 370.37 nM alone (Compound-44A 0), checkerboard, 3 days) of the same compound?
**A.** 125%

**Q.** What about the inhibition at 1.11111 µM (Homo sapiens, DU-145, 72 h, Docetaxel 1111.11 nM alone (Compound-44A 0), checkerboard, 3 days) of the same compound?
**A.** 124%

**Q.** And the inhibition at 3.33333 µM (Homo sapiens, DU-145, 72 h, Docetaxel 3333.33 nM alone (Compound-44A 0), checkerboard, 3 days)?
**A.** 123%

**Q.** And the inhibition at 10 µM (Homo sapiens, DU-145, 72 h, Docetaxel 10000.00 nM alone (Compound-44A 0), checkerboard, 3 days)?
**A.** 118%

**Q.** And the inhibition at 6.3 pM (Homo sapiens, DU-145, 72 h, Docetaxel […] alone (Compound-44A 0), checkerboard, 3 days)?
**A.** 0%

**Q.** What about the inhibition at 0.0005081 µM (Homo sapiens, DU-145, Docetaxel 0.5081 nM, Day-3, replicate columns) of the same compound?
**A.** 14%

**Q.** What about the inhibition at 0.0015242 µM (Homo sapiens, DU-145, Docetaxel 1.5242 nM, Day-3, replicate columns) of the same compound?
**A.** 49.8%

**Q.** And the inhibition at 0.0045725 µM (Homo sapiens, DU-145, Docetaxel 4.5725 nM, Day-3, replicate columns)?
**A.** 94.6%

**Q.** What about the inhibition at 0.0137174 µM (Homo sapiens, DU-145, Docetaxel 13.7174 nM, Day-3, replicate columns) of the same compound?
**A.** 115%

**Q.** What about the inhibition at 0.0411523 µM (Homo sapiens, DU-145, Docetaxel 41.1523 nM, Day-3, replicate columns) of the same compound?
**A.** 123%

**Q.** What about the inhibition at 0.123457 µM (Homo sapiens, DU-145, Docetaxel 123.4568 nM, Day-3, replicate columns) of the same compound?
**A.** 126%

**Q.** And the inhibition at 0.37037 µM (Homo sapiens, DU-145, Docetaxel 370.3704 nM, Day-3, replicate columns)?
**A.** 126%

**Q.** What about the inhibition at 1.11111 µM (Homo sapiens, DU-145, Docetaxel 1111.1111 nM, Day-3, replicate columns) of the same compound?
**A.** 125%

**Q.** What about the inhibition at 3.33333 µM (Homo sapiens, DU-145, Docetaxel 3333.3333 nM, Day-3, replicate columns) of the same compound?
**A.** 124%

**Q.** And the inhibition at 10 µM (Homo sapiens, DU-145, Docetaxel 10000.00 nM, Day-3, replicate columns)?
**A.** 119%

**Q.** And the “inhibition of proliferation in DU145 cells” value?
**A.** dose dependent inhibition of proliferation
